These results are taken from EP4332093A1, “SALT CONTAINING PIPERAZINE POLYCYCLIC DERIVATIVE, CRYSTAL FORM THEREOF, PREPARATION METHOD THEREFOR, AND USE THEREOF” (Shanghai Hansoh Biomedical Co., Ltd., priority 2021, dated 2022).

SMILES strings stand for the structures. Where two headings read alike, the source gives them in different places.

A short description of series [1]: Pharmacokinetic assay in Balb/c mice (plasma and brain tissue). In kind it is in vivo. To be noted: male, mouse, po, p.o. 5 mg/kg; for AUC(0-t): read-out: Area under curve AUC0-t; for Tmax: read-out: Peak time tmax; for Cmax: read-out: Plasma concentration Cmax; for AUC(0-inf): read-out: Area under curve AUC0-∞; for MRT: read-out: Average residence time MRT; for half-life: read-out: Half life t1/2 (converted). As to the method: Balb/c mice were used as test animals. The pharmacokinetic behavior in mouse body (plasma and brain tissue) of the compounds of Examples of the present invention was studied at an oral administration dose of 5 mg/kg.
Compounds of the Examples of the present invention, prepared by the applicant.
Male Balb/c mice (12 mice per group), purchased from Shanghai Jiesijie Laboratory Animal Co., LTD, with Certificate No.: SCXK (Shanghai) 2013-0006 N0.311620400001794.
The test compound was dissolved in 0.5% CMC-Na (1% Tween80) by sonication to formulate a clear solution or homogeneous suspension.
After an overnight fast, male Balb/c mice (12 mice per group) were administered p.o. with the test compound at an administration dose of 5 mg/kg and an administration volume of 10 mL/kg.
0.2 mL of blood was taken from the heart of the mouse before administration and at 1, 2, 4, 8 and 24 hours after administration, and the mice were sacrificed with CO2. The samples were stored in EDTA-K2 tubes, and centrifuged for 6 minutes at 4°C, 6000 rpm to separate the plasma. The plasma samples were stored at -80°C. Whole brain tissue was taken out, weighed, placed in a 2 mL centrifuge tube, and stored at -80°C.
• 1) 160 µL of acetonitrile was added to 40 µL of the plasma sample for precipitation, and then the mixture was centrifuged for 5 to 20 minutes at 3500 × g. • 2) 90 µL of acetonitrile containing internal standard (100 ng/mL) was added to 30 µL of the plasma and brain homogenate sample for precipitation, and then the mixture was centrifuged for 8 minutes at 13000 rpm. • 3) 70 µL of water was added to 70 µL of the treated supernatant and mixed by vortex for 10 minutes. 20 µL of the supernatant was taken to analyze the concentration of the test compound by LC/MS/MS. LC/MS/MS analytical instrument: AB Sciex API 4000 Qtrap.
• Liquid chromatography condition: Shimadzu LC-20AD pump • Chromatographic column: Agilent ZORBAX XDB-C18 (50×2.1 mm, 3.5 µm); Mobile phase: Eluent A was 0.1% formic acid in water, and Eluent B was acetonitrile • Flow rate: 0.4 mL/min • Elution time: 0-4.0 minutes, the eluent is as follows:
The main parameters of pharmacokinetics were calculated by WinNonlin 6.1. Table 17: Experimental results of pharmacokinetic assay in mice

A further series deals with 5-HT2A receptor (Homo sapiens, UniProt P28223). The series can be described thus: Calcium ion mobility in cells stably expressing 5-HT2A receptors (Flp-In-CHO-5HT2A, FLIPR). In kind it is cell-based. More on the design: expressed in transfected cells. Conditions: Flp-In-CHO-5HT2A stable pool, 5HT stimulation. How it is done: Determination of the effect of the compounds of the present invention on calcium ion mobility in cells stably expressing 5-HT2A receptors
5-HT2A receptor, sequence (P28223 whole entry): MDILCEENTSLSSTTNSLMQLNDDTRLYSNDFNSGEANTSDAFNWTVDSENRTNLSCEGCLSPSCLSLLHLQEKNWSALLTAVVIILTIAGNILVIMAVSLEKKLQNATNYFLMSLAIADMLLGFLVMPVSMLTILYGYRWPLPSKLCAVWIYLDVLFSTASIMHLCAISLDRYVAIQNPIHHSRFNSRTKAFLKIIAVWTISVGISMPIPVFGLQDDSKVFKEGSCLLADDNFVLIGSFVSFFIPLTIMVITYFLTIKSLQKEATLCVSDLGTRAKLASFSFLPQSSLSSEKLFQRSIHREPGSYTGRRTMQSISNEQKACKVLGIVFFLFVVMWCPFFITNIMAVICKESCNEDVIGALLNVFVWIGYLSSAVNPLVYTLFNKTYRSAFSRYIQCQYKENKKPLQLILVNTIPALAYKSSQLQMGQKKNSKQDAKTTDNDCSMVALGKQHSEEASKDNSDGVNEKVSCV
To determine the inhibitory effect of the compounds on 5-HT2A receptor.
• 1) Preparation of the buffer: 1 x HBSS, 20 mM HEPES, 2.5 mM probenecid (probenecid was 400 mM stock in 1 M NaOH), 0.1% BSA. Probenecid and BSA were added fresh on the day of the experiment. Experimental buffers include dye buffer and compound dilution buffer. • 2) Cell culture medium: Ham's F-12K + 10% fetal bovine serum + 600 µg/ml hygromycin B + 1* penicillin-streptomycin. Seeding medium: Ham's F-12K + 10% dialysis serum; Assay buffer: 1 x HBSS + 20 mM HEPES; Cell line: Flp-In-CHO-5HT2A stable pool. • 3) The cells were cultured in the complete medium at 37°C, 5% CO2 to 70%-90% confluency. The cells were digested with TrypLE, seeded to the 384-well assay plate at a density of 1 × 10^4 cells/well, and incubated for 16 to 24 hours (at least overnight). • 4) 20X Component A was thawed to room temperature, diluted to 2X working concentration (containing 5mM Probenecid) with the assay buffer, and placed at room temperature for later use. • 5) The cell culture plate was taken out and left to stand at room temperature for 10 min. […] 10 µl of diluted 5HT was add to each experimental well using FLIPR Tetra, and the values were read.
The calcium signal values were determined by FLIPR. The calculated output for each sampling time point in the experiment was the ratio of the 340/510 nm wavelength signals to 380/510 nm wavelength signals. The maximum minus minimum calculation was derived from the ratio signal curve. The percent inhibition rate and ten-point concentration data were fitted to the parametric nonlinear logistic equation by using GraphPad prism to calculate the IC50 values of the compound.

For a further series, the target named is T1, D3 receptor (Homo sapiens, UniProt P35462).
T1 construct: expressed in transfected cells
T1 sequence (P35462 whole entry): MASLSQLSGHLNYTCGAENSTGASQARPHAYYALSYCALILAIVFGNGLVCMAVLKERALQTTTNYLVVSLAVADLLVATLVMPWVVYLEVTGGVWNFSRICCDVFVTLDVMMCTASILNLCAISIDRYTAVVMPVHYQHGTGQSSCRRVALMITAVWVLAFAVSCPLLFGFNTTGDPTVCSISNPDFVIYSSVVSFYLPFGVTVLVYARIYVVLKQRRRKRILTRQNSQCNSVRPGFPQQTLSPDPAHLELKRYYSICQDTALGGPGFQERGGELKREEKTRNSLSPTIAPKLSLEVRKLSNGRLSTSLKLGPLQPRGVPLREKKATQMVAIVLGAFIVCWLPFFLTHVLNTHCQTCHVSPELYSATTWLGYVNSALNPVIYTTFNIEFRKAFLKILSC
The series can be described thus: cAMP content in cells stably expressing D3 receptors (CHO-D3, forskolin, HTRF). In kind it is cell-based. As to the method:
Determination of the effect of the compounds of the present invention on cAMP content in cells stably expressing D3 receptors
To determine the activation effect of the compounds on D3 receptor.
• 1. Preparation of the buffer: 1* HBSS + 20mM HEPES + 0.1% BSA + 500 µM IBMX. Complete medium: Ham's F12K + 10% fetal bovine serum +1* penicillin-streptomycin + 400 µg/mL G418. • 2. CHO-D3 cells were cultured in the complete medium at 37°C, 5% CO2. After TrypLE digestion, the cells were resuspended in the experimental buffer, and seeded into a 384-well cell culture plate at a seeding density of 8000 cells per well. • 3. The experimental buffer (1*HBSS, 0.1% BSA, 20 mM HEPES and 500 µM IBMX) was prepared. The compound was diluted with the buffer. 2.5 µL of the compound solution was added to each well, and the plate was incubated at 37°C for 10 minutes. The forskolin was diluted to 8 µM (8*) with the experimental buffer. 2.5 µL of the diluted 8* forskolin was added, and the plate was incubated at 37°C for 30 minutes. cAMP-d2 and Anti-cAMP-Eu^3+ were thawed, and diluted by 20-fold with the lysis buffer. 10 µL of cAMP-d2 was added to the experimental well, followed by the addition of 10 µL of Anti-cAMP-Eu^3+. The reaction plate was centrifuged at 200 g for 30 s at room temperature, and left to stand at 25°C for 1 h. Data was collected using Envision.
Background: Time-resolved FRET reads energy transfer from a long-lived donor to a nearby acceptor.

Series [2] can be described thus: Solid stability experiment of crystal forms of salt (5 and 10 days). In kind it is physicochemical. As to the method: About 1 mg of different crystal forms of salt were taken and placed under the conditions of light 5000lx, high temperature 60°C, high humidity 92.5%RH, high temperature and high humidity 50°C 75%RH for 5 days and 10 days. The salt content was determined by HPLC and external standard method, and the change of relevant substances was calculated by chromatographic peak area normalization method.

The mark [3] stands for this setting: High humidity (92.5% RH), 5 Days.
Setting [4] is: High humidity (92.5% RH), 10 Days.
The mark [5] stands for this setting: High temperature (60°C), 5 Days.
The mark [6] stands for this setting: High temperature (60°C), 10 Days.
The mark [7] stands for this setting: High temperature and high humidity (50°C 75%RH), 5 Days.
Where [8] appears, read: High temperature and high humidity (50°C 75%RH), 10 Days.

As a reminder, the Tmax is the time at which the peak concentration occurs. By MRT is commonly meant the average time that molecules of a dose stay in the body. As usually defined, the IC50 is the concentration needed to halve the response being measured. By EC50 is commonly meant the concentration that produces a half-maximal response. Low readings indicate an effect from little substance, high ones a need for much substance.

Regarding `O=C(NC1CC(CCN2CCN(c3cccc(Cl)c3Cl)CC2)C1)C1(O)CC1` (centres unmarked) [Example 6, N-(3-(2-(4-(2,3-Dichlorophenyl)piperazin-1-yl)ethyl)cyclobutyl)-1-hydroxycyclopro pane-1-carboxamide], in series [1] (Brain), the AUC(0-t) was found to be 1970 ng·h/mL, the Tmax came to 60 min and the Cmax was 464 ng/mL. Besides, in series [1] (Plasma), the AUC(0-t) was 2330 ng·h/mL, the AUC(0-inf) was determined as 2460 ng·h/mL, the MRT was determined as 2.8 h and the half-life is 114 min. Moreover, in series [1] (Plasma), the Tmax was 30 min and the Cmax came out at 865 ng/mL. For the same compound, the IC50 at 5-HT2A receptor amounted to 13.1 nM. On D3 receptor, this compound gave a concentration for a half-maximal effect (EC50) of 2.9 nM.

For the compound `O=C(N[C@H]1C[C@H](CCN2CCN(c3cccc(Cl)c3Cl)CC2)C1)c1ncco1` [Crystal form A of hydrochl oride], the “Maximum single impurity increase%” value in series [2] (setting [3]) is on record as 0.06%; in series [2] (setting [4]), below 0.02%; in series [2] (setting [5]), below 0.02%; in series [2] (setting [6]), below 0.02%; in series [2] (setting [7]) it was below 0.02%; in series [2] (setting [8]), below 0.02%. Also, the “Maximum single impurity increase%” value in series [2] (Light (5000lx), 5 Days) was below 0.02%; in series [2] (Light (5000lx), 10 Days), below 0.02%. Further, the Total impurity increase% in series [2] (setting [3]) is listed as 0.06%; in series [2] (setting [4]) it was below 0.02%; in series [2] (setting [5]) it was below 0.02%; in series [2] (setting [6]) it was 0.03%; in series [2] (setting [7]) it was below 0.02%; in series [2] (setting [8]) it was below 0.02%. The Total impurity increase% in series [2] (Light (5000lx), 5 Days) is below 0.02%; in series [2] (Light (5000lx), 10 Days), below 0.02%.

With `O=C(NC1CC(CCN2CCN(c3cccc(Cl)c3Cl)CC2)C1)c1nccs1` (centres unmarked) [Example 7, N-(3-(2-(4-(2,3-Dichlorophenyl)piperazin-1-yl)ethyl)cyclobutyl)thiazole-2-carboxamide], in series [1] (Brain), the AUC(0-t) is 2080 ng·h/mL, the time to peak (Tmax) was 60 min and the Cmax is 569 ng/mL. For the same compound, in series [1] (Plasma), the AUC(0-t) was 503 ng·h/mL, the AUC(0-inf) worked out at 541 ng·h/mL, the MRT worked out at 2.8 h and the half-life was 126 min. Further, in series [1] (Plasma), the time to peak (Tmax) is 30 min and the Cmax was 254 ng/mL. Also, at 5-HT2A receptor, the half-inhibitory concentration (IC50) was 6.44 nM. This compound gave a concentration for a half-maximal effect (EC50) at D3 receptor of 2.8 nM.

Consider `O=C(N[C@H]1C[C@H](CCN2CCN(c3cccc(Cl)c3Cl)CC2)C1)c1ncco1` [Crystal form B of p-toluene sulfonate], for which the “Maximum single impurity increase%” value in series [2] (setting [3]) is below 0.02%; in series [2] (Light (5000lx), 5 Days), 0.13%; in series [2] (Light (5000lx), 10 Days) it was 0.13%. The Total impurity increase% in series [2] (setting [3]) was below 0.02%; in series [2] (setting [6]), below 0.02%; in series [2] (Light (5000lx), 5 Days), 0.03%; in series [2] (Light (5000lx), 10 Days), 0.19%.

Regarding `O=C(N[C@H]1C[C@H](CCN2CCN(c3cccc(Cl)c3Cl)CC2)C1)c1ncco1` [crystal form B of p-toluenesulfonate], the “crystal form stability (single impurity)” value in series [2] (light conditions (5000lx)) was “single impurity increases significantly”. Moreover, the crystal form stability entry in series [2] (other conditions (60°C, 92.5% RH, 50°C 75% RH)) is on record as “stable”.
